Data from patent US11957671B2, “Benzodioxane modulators of leukotriene A4 hydrolase (LTA4H) for prevention and treatment of aging-associated diseases” (Alkahest, Inc., priority 2021, dated 2024).

Key:
Type in all cases: in vivo, mouse
[1] = tested on: aged wild type (WT; C57BL/6) mice; test: Radial Arm Water Maze (RAWM); conditions: 10 mg/kg PO daily, after 29 days of treatment
Method: The water maze (see, e.g. Alamed J, et al., Two-day radial-arm water maze learning and memory tasks; robust resolution of amyloid-related memory deficits in transgenic mice, Nat. Protoc., 1(4):1671-79 (2006)), was filled with water at least 24 hours prior to the test to equilibrate to 25° C. The water was dyed with white latex paint to make the animals visible for tracking and to allow for the use of a hidden platform. Eight distinct visual cues were placed at the end of each of eight arms of the RAWM inserts. On day 1 animals were subjected to 5 trials each with a visible platform and a 30-minute inter-trial interval. Animals had 60 seconds to reach the platform. […] The goal arm remained constant, and a different start arm was randomly assigned for each of the 5 trials so that mouse started in every arm once except for the two arms directly across from the platform. The goal arm was switched after every two mice and balanced between all treatment groups. After each trial the mice were placed in an empty cage with blue pads and allowed to dry off under a heat lamp before being placed back into their home cage. Testing day was 48 hours after training, when animals were subjected to the same test of 5 trials each and a 30-minute inter-trial interval, but with a hidden platform. Animals were scored for the number of errors (entry into a non-goal arm) and for latency to reach the platform. All trials were recorded using ANY-maze software.
(§1) Three independent cohorts of aged wild type (WT; C57BL/6) mice between twenty to twenty-two months of age (20-22 mo) were homogenized into two (2) groups by body weight, total distance travelled in the open field test, and average velocity in the open field test. Group 1 was administered vehicle control PO daily. Group 2 was administered 10 mg/kg of the LTA4H inhibitor Compound 1 PO daily. Both groups were dosed for either 10 days or 4 weeks daily. Behavioral assays were run during the last week of dosing and animals were sacrificed at the end of the study for histological and molecular assays.

[2] = tested on: aged wild type (WT; C57BL/6) mice; test: Histology of astrocytes (GFAP, AQP4) in CA1 hippocampus
Method: Brains were collected following saline perfusion and separated by mid-sagittal slice with one-half drop fixed in freshly prepared 4% PFA. PFA was changed to 30% sucrose 24-48 hours later. A second change to 30% sucrose occurred 24 hours later. Brain tissue was sectioned or lysed and analyzed for GFAP, AQP4, or IBA1 by standard histological methods. Images were acquired using a confocal microscope or Axioscan slide scanner.
as §1
FIGS. 22-30 report the results of the histology of astrocytes. GFAP is a pan astrocytic marker that was used to measure total number and size of astrocytes as a readout for astrocyte reactivity. AQP4 is a water channel expressed in astrocyte endfeet that line the blood-brain barrier. GFAP and AQP4 are increased with age and diseases with cognitive decline and BBB impairment (Kress B T et al., Ann Neurol, 76(6):845-61 (2014), Owasil R et al., Int J Mol Sci, 21(4) (2020), and Qi L et al., Life Sci, 88(1-2):50-56)). FIG. 22 reports GFAP percent area (Mann-Whitney test. (n=10, 10)), FIG. 23 reports the number of GFAP+ cells (Mann-Whitney test. (n=10, 10)), and FIG. 24 reports the average size of GFAP+ cells (Mann-Whitney test. (n=10, 10)) in the CA1 region of the hippocampus following 10 days of dosing. FIG. 25 reports the AQP4 intensity across a 60 micron (um) long line drawn across the large descending vessels of the CA1 hippocampus after 10 days of dosing with vehicle or Compound 1.

aged C57BL6 mice = test: Inverted Wire Hang; conditions: 12 days of dosing
Method: Mice were brought into the experimental room for at least 20 minutes of acclimation to the experimental room conditions (bright lighting) prior to testing. Each mouse was placed in the center of the grid. Then swiftly in one continuous motion the grid was inverted 180 degrees to suspend the mouse upside down with their nose being the last part of the mouse to be suspended. The timer was started once the mouse was completely suspended and time to fall was recorded. Mice were tested 3 times with no rest period between each test with a maximum suspension time of 120 seconds. The maximum and average time to fall were scored for each animal.

aged C57BL/6 mice = test: Long term potentiation (LTP) in hippocampal slices; conditions: 1 month bid po, 1 mg/kg Compound 1 or 2.5 mg/kg SC57461A
Method: Aged C57BL/6 mice (21 months of age) were treated for 1 month bid po with vehicle, 1 mg/kg Compound 1, or 2.5 mg/kg SC57461A (n=5 mice per treatment group). Electrophysical recordings were performed at AfaSci, Inc, as follows. Animals were deeply anesthetized with halothane and decapitated. The brain was quickly taken out and placed into ice-cold artificial cerebrospinal fluid (ACSF) that was continuously bubbled with 5% CO2/95% O2. The ACSF was composed of (in mM) NaCl 130.0, KCl 2.5, KH2PO4 1.2, CaCl2 2.4, MgSO4 1.3, NaHCO326.0 and glucose 10.0 (pH 7.4). Hippocampal slices (400 μm thick) were prepared using a tissue slicer (Stoelting Co., IL) and incubated at room temperature in continuously oxygenated ACSF for at least 1 h before being recorded with submerged mode in chamber (Harvard Apparatus) at room temperature. Data were collected with an Axopatch-2B amplifier and pClamp 10.4 program (Axon Instruments) through digidata 1320A.
Field population spike (PS) was recorded using glass microelectrode filled with ACSF (resistance: 1-3 MO). Biphasic current pulses (0.2 ms duration for one phase, 0.4 ms in total) were delivered in 10 s intervals through a concentric bipolar stimulating electrode (FHC, Inc.). […] To record field population spikes in dorsal dentate gyrus, the stimulating electrode was placed on the hippocampal fissure to stimulate the bypassing perforant pathway fibers and the recording electrode was placed on inner part of granular cell layer. To record field EPSPs in DG, the stimulating electrode was placed on the hippocampal fissure to stimulate the bypassing perforant pathway fibers and the recording electrode was placed on inner part of granular cell layer. Slices were recorded within 8 hours after dissection. Titanic stimulation consisted of 2 trains of 100 pulses (0.4 ms bipolar pulse duration, 100 Hz) lasting for 1 second with 5 seconds of interval. The slope of EPSP and amplitude of population spike were measured from the initial phase of negative wave with Clampfit10.4. Each data point was measured with average of 3 consecutive traces. LTP was plotted as the percentage to baseline following high frequency stimulation (mean±SEM).

## O=C(O)C1CCN(Cc2ccc([C@H]3COc4ccccc4O3)cc2)CC1 [Example 1, 1-{4-[(2S)-2,3-dihydro-1,4-benzodioxin-2-yl]benzyl}piperidine-4-carboxylic acid]
[1]
  average number of errors during the last trial: significant decreased in number of errors
  latency to find the hidden platform, last trial: trend towards a reduction in time to find the platform
  number of errors during the training and testing phases: small, but significant improvement in number of errors
[2]; 4 weeks of treatment
  AQP4 intensity across large descending vessels of CA1 hippocampus: reduction in the AQP4 intensity
  GFAP percent thresholded area, CA1: significant reduction GFAP percent thresholded area
  total GFAP+ cell number, CA1: did not change
[2]; 10 days of dosing
  AQP4 intensity across large descending vessels of CA1 hippocampus: trending reduction in AQP4 intensity
Aged C57BL6 mice
  maximum hang time in the wire hang test: no change in maximum hang time
Aged C57BL/6 mice
  LTP, CA1 region of the hippocampus: increase in LTP
  LTP, DG region of the hippocampus: increase in LTP
